The source of these data is US8980796B2, “Crystal modification of Mesotrione” (Agan Chemical Manufacturers Ltd., priority 2009, dated 2015).

“Also recorded” adds a separate entry of the source. Where two headings read alike, the source gives them in different places.

The conditions of data set [1]: per WO 2007/083242, WO 2006/021743, cited from earlier work.
The next data set deals with corn varieties. As to the kind of experiment: Selectivity pot trials, overall phytotoxicity on crops. In kind it is in vivo. To be noted: corn varieties tested; 3500 ml/ha (equivalent to 350g a.i./ha). The protocol:
The selectivity of two Mesotrione 100SC (containing 100 g/l mesotrione) formulations was compared for two crystal modifications (1 and 3).
The test was performed on three corn varieties. The corn varieties were sown in plastic pots (400 cc) filled with heavy soil. Each treatment was sprayed in 5 replicates. The trial was performed in a glasshouse with controlled temperature (20-30°).
Post emergence spraying was performed two weeks after sowing. The trials were sprayed with a mechanical sprayer, with a spray volume of 200 L/ha (equivalent to 3500 ml/ha mesotrione 100SC). The plants were irrigated 24 H (hours) after spraying. Selectivity evaluations were conducted during the trial according to the following scale: • 0=Crop completely dead (necrotic). • 100=Plants without any phytotoxic damage.

With `CS(=O)(=O)c1ccc(C(=O)C2C(=O)CCCC2=O)c([N+](=O)[O-])c1` [Mesotrione form 1, 2-[4-(methylsulfonyl)-2-nitrobenzoyl]-1,3-cyclohexanedione], the “thermodynamic stability of the polymorphic form” value in data set [1] (listed as Form 1) was “thermodynamically stable”.

As for `CS(=O)(=O)c1ccc(C(=O)C2C(=O)CCCC2=O)c([N+](=O)[O-])c1` [Mesotrione form 2, 2-[4-(methylsulfonyl)-2-nitrobenzoyl]-1,3-cyclohexanedione], the “thermodynamic stability of the polymorphic form” value in data set [1] (listed as Form 2) is “thermodynamically unstable”. For `CS(=O)(=O)c1ccc(C(=O)C2C(=O)CCCC2=O)c([N+](=O)[O-])c1` [Mesotrione form 3, 2-[4-(methylsulfonyl)-2-nitrobenzoyl]-1,3-cyclohexanedione], the “phytotoxicity on crops as compared to mesotrione form 1” value in the data set on corn varieties was “decreased phytotoxicity; also recorded: low phytotoxicity”.
